Experimental data from patent US20130136722A1, “Methods of Ex Vivo Expansion of Blood Progenitor Cells, and Generation of Composite Grafts” (The Board of Trustees of The University of Illinois, priority 2011, published 2013).
“And” between values parts separate entries of the source, which are not always exact repeats. Identical values can stand only once.

Legend:
[1] = system: promoter CpG sites (GATA1, S100A8, Cyp11A1); test: Pyrosequencing of promoter CpG sites of genes in expanded CD34+ cells; type: cell-based, human; conditions: FIG. 5C
Procedure: DNA methylation analysis was performed by EpigenDx (Worcester, Mass.) using quantitative pyrosequencing and the PSQ-HS96 system according to standard procedures (Warren et al., 2010, Cell Stem Cell. 7: 618-630). Primers were developed for the CpG sites near the promoter area as detailed in Table 3. Briefly, genomic DNA was isolated from primary or CMA expanded enriched CD34^+ cells using the Blood and Cell Culture DNA kit (Qiagen, Valencia Calif.). Genomic DNA was bisulfite treated by an EZ Methylation Kit (Zymo Research, Irvine, Calif.), and biotinylated gene specific primers or long interspersed nucleotide element 1 (LINE-1) primers were used to amplify regions of interest for analysis as described (Bhatia et al., 1997, J Exp Med. 186: 619-624).
Genomic DNA was isolated from primary, 5azaD/TSA or VPA expanded CD34^+ cells following culture using the Blood and Cell Culture DNA kit (Qiagen, Valencia Calif.). Genomic DNA was bisulfite treated by an EZ Methylation Kit (Zymo Research, Irvine, Calif.).

[2] = system: NOD/SCID mice; test: In vivo bone marrow homing assay; parameters: species or system mouse; conditions: expanded CB cells homing to bone marrow; FIG. 2F
Procedure: In order to assess whether the lower SRC frequency, or lower hematopoietic chimerism, detected following transplantation of VPA expanded cells was due to a defect in the homing of transplanted cells to the host bone marrow, an in vivo homing assay was performed in NOD/SCID mice.

[3] = system: cobblestone area-forming cells (CAFC); test: Cobblestone area-forming cell (CAFC) assay, limiting dilution on M2-10B4 stromal cells; type: cell-based, human; conditions: for CAFC Frequency/10^4 cells: limiting dilution, mean ± SEM of three independent experiments
Procedure: Colony-forming cell (CFC) were assayed by plating 5×10^2 cells per dish in semisolid media and were counted after 14 days as described (Araki et al., 2009, Id.). The number of cobble stone area-forming cell (CAFC) was quantitated in primary and expanded CD34+ cells by plating in limiting dilution onto irradiated M2-10B4 stromal cells as described (Araki et al., 2009, Id.; Conneally et al., 1997, Proc. Natl. Acad. Sci. USA. 94: 9836-9841; Taswell, 1981, J. Immunol. 126: 1614-1619).
In order to determine the a correlation between expansion of CD34^+CD90^+ cells and their functional potential as pluripotent hematopoietic stem cells, in vitro functional assays were performed, including assessment of colony-forming cells (CFC), a short-term assay, and cobblestone-area forming cells (CAFC), a long-term assay.

[4] = system: NOD/SCID mice; test: SCID repopulating cell (SRC) frequency by limiting dilution analyses; type: in vivo, mouse; conditions: for (# of NOD/SCID mice engrafted)/(# of mice transplanted): Day 9
Procedure: (§1) Immunodeficient nonobese diabetic/ltsz-scid/scid (NOD/SCID) mice were purchased from Jackson Laboratories (Bar Harbor, Me.) and transplantation assays were performed as described (Araki et al., 2009, Id.; Araki et al., 2007, Id.; Taswell, 1981, Id.). Equal number of primary CD34^+ cells or the progeny of an equal initial number of CD34^+ cells following culture were injected per mouse intravenously. Mice were sacrificed 8 weeks after transplantation, and bone marrow (BM) cells from each mouse were analyzed by flow cytometry to detect multilineage human cell engraftment.
The frequency of SCID-repopulating cells (SRCs) present in VPA-expanded, CD34^+CD90^+ cord blood-derived stem cells was quantitated in comparison to unmanipulated primary cord blood cells by in vivo xeno-transplant studies using limiting dilution analyses as described previously (Conneally et al., 1997, Proc. Natl. Acad. Sci. 94: 9836-41; Bhatia et al., 1997, J Exp Med. 186: 619-24; Wang et al., 1997, Blood 89: 3919-24; Chute et al., 2005, Blood 105: 576-83). The frequency of SRC was 1 in 22,000 (95% Confidence Interval: 1/11,722-1/41,293) in primary CD34^+CD90^+ cells, and 1 in 21,720 (95% Confidence Interval: 1/11,160-1/42,269) in the VPA expanded cultures (Table 5 and FIG. 2E).

[5] = system: NOD/SCID mice; test: NOD/SCID transplantation assay: in vivo hematopoietic reconstitution by expanded CB cells; parameters: species or system mouse
Procedure: as §1
Furthermore, hematopoietic stem cell potency of CMA-treated cord blood cells was evaluated in vivo by assaying hematopoietic repopulation potential of CD34^+ cells expanded with various CMAs. In these experiments, non-obese diabetic/severely combined immunodeficient (NOD/SCID) mice were transplanted with primary CD34^+ cells or the equivalent starting number of CD34^+ cells expanded in culture media supplemented by cytokines alone or in combination with 5azaD/TSA, VPA or 5azaD/VPA. […] Cells from cultures expanded with cytokines and VPA were capable of human hematopoietic engraftment in 2 out of 7 mice with a barely detectable level of chimerism (0.11%, 0.14%) (FIG. 2C).

[6] = system: LTB4; test: LTB4 in conditioned media by AChE competitive ELISA; type: cell-based, human; conditions: day 9 of expansion culture; FIG. 4E
Procedure: The concentration of LTB4 in conditioned media was measured by an acetylcholine esterase competitive enzyme immunoassay following the manufacturer's instructions (Cayman Chemical Co. Ann Arbor, Mich.). Absorbance at 405 nm was read using ELx 800, instrument (Bio Tek Instruments Inc.). Results were calculated using mean values of triplicate wells with standard errors (SE).

Structure (SMILES): CCCC(CCC)C(=O)O [VPA, valproic acid]
- methylation levels of S100A8 and Cyp11A1 gene promoter sites [1]: almost completely lacked any changes in methylation
- methylation of the GATA1 gene promoter [1]: minimal demethylation
- homing efficiency [2]: 1.68%
- fold expansion of long term (5 weeks) CAFC ([3]; FIG. 2B): 8.4±1.6 fold
- CAFC Frequency/10^4 cells [3]: 14.67±0.74 /10^4 cells
- CAFC Frequency/10^4 cells ([3]; listed as VPA Alone): 14.67 ± 0.74 /10^4 cells
- (# of NOD/SCID mice engrafted)/(# of mice transplanted) ([4]; 2,000 CD34+CD90+ cells used to initiate ex vivo culture): 0/7
- (# of NOD/SCID mice engrafted)/(# of mice transplanted) ([4]; 5,000 CD34+CD90+ cells used to initiate ex vivo culture): 2/5
- (# of NOD/SCID mice engrafted)/(# of mice transplanted) ([4]; 10,000 CD34+CD90+ cells used to initiate ex vivo culture): 2/7
- (# of NOD/SCID mice engrafted)/(# of mice transplanted) ([4]; 20,000 CD34+CD90+ cells used to initiate ex vivo culture): 5/8
- SRC numbers during ex-vivo culture (in words) ([4]; mouse, in vivo): maintained SRC numbers
- regenerative capacity (in vivo hematopoietic reconstitution function) of expanded CD34+ cells ([5]; Day 9 expanded CD34+ cells): possessing regenerative potential
- multilineage differentiation of expanded cells following transplantation ([5]; FIG. 2D): retained the ability to differentiate into both myeloid and lymphoid lineages
- mice with human hematopoietic engraftment of mice transplanted ([5]; cells expanded with cytokines plus CMA, i.v., analysed 8 weeks after transplantation, FIG. 2C): 2 out of 7
- human hematopoietic chimerism (human CD45+ cells in mouse bone marrow) ([5]; engrafted recipient mice, FIG. 2C): 0.11% and 0.14%
- level of leukotriene B4 (LTB4) in conditioned medium [6]: increased compared to control
